Laboratory results as given in publication PMC9950205, “Efficacy, safety, and pharmacokinetics of teduglutide in adult Japanese patients with short bowel syndrome and intestinal failure: two phase III studies with an extension” (Surgery Today, 2022).
Read-outs that look alike come from different tables or passages of the source.

Assays:
Assay type in all cases: in vivo, human
[1] = test system: adult Japanese patients with SBS-IF; assay: Parenteral support (PS) requirements in phase III studies TED-C14-004, SHP633-306 and extension SHP633-307, teduglutide 0.05 mg/kg SC once daily; conditions: for Patients with reduction in weekly PS volume of ≥ 20% from baseline at both weeks 20 and 24: 0.05 mg/kg SC once daily; for Patients whose PS volume decreased by ≥ 20%: 0.05 mg/kg/day
Experimental: As in the previous STEPS-1 study, patients participating in the core studies (TED-C14-004 and SHP633-306) underwent an optimization (2–8 weeks) and stabilization (4–8 weeks) period before initiation of treatment with teduglutide, during which PS was adjusted with the goal of achieving a stable target urine output of 1.0–2.0 L/day. All participating patients received teduglutide 0.05 mg/kg SC once daily throughout these three studies. PS was adjusted according to an algorithm based on the change from baseline in urine output and other assessments of fluid balance and nutrition status; the PS adjustment algorithm required reductions in PS if the urine output rose more than 10% above baseline. Patients had study visits at weeks 2 and 4, after which visits were held monthly during TED-C14-004 and SHP633-306. During SHP633-307, patients from SHP633-306 had monthly study visits throughout the 24 total months of treatment and then at 3-month intervals thereafter, and patients from TED-C14-004 had visits at 3-month intervals. The end-of-study assessments for SHP633-306 and TED-C14-004 were combined with the first visit of SHP633-307. SHP633-307 is ending soon with the approval of teduglutide in Japan.
(§1) Efficacy endpoints were defined in an analogous manner to previous pivotal studies. These included a clinically meaningful reduction in weekly PS volume of ≥ 20% [17] measured between baseline and both 20 and 24 weeks for TED-C14-004 and SHP633-306, and a continued reduction in weekly PS volume of ≥ 20% from the baseline in core studies at each scheduled visit until the last visit before the interim data cut-off of SHP633-307. Other efficacy endpoints included changes in absolute and percentage weekly PS volumes from the baseline in the core studies at each study visit, the number of days per week of PS, the number of patients who achieved enteral autonomy at the end of treatment or the data cut-off, and the changes in plasma citrulline levels from baseline in the core studies. The primary efficacy data were derived from patient diaries and compared against investigator-prescribed data captured in electronic case report forms.
Efficacy was evaluated between baseline and 24 weeks in TED-C14-004 and SHP633-306 and between baseline and 30 months in […]. Among patients who entered SHP633-307, the total follow-up periods, including the prior studies, were up to 14–57 months of total teduglutide exposure for patients from SHP633-306 and TED-C14-004.
Post hoc analyses of PS volume reductions in patients with Crohn’s disease, with and without a stoma, were performed for TED-C14-004.

[2] = test system: adult Japanese patients with SBS-IF; assay: Plasma citrulline, biomarker of intestinal epithelial mass, change from baseline
Experimental: Concentrations of plasma citrulline, a biomarker of intestinal epithelial mass, were measured at baseline; weeks 4, 8, 16, and 24; and then every 2 months thereafter up to 30 months of treatment. Patients who continued into SHP633-307 from SHP633-306 had measurements taken at month 12, while those continuing from TED-C14-004 had measurements taken every 3 months.
as §1

[3] = Plasma pharmacokinetics of teduglutide, non-compartmental analysis; conditions: for half-life / AUC(0-inf) / AUC(0-t) / Cmax / Tmax: human, plasma, 0.05 mg/kg; for half-life: read-out: t½ (converted)
Experimental: In TED-C14-004 and SHP633-306, blood samples for PK evaluations were taken pre-dose and at 0.25, 0.5, 1, 2, 3, 4, 6, 8, 10, and 12 h post-dose during the first 12 weeks of treatment with teduglutide. In SHP633-307, patients continuing from study TED-C14-004 had blood samples for PK evaluations taken pre-dose and at […], and 1, 2, 3, 4, 6, 8, 10, and 12 h post-dose at the first extension study visit. Patients continuing from SHP633-306 had blood samples taken pre-dose and 1 and 2 h post-dose at the first extension study visit. Blood samples to test for the presence of antibodies to teduglutide were taken at baseline and weeks 12 and 24 in SHP633-306; ≥ 14 h after dosing at baseline and weeks 12 and 24, and then every 6 months thereafter in TED-C14-004; and every 3 months in SHP633-307.
Single-dose PK parameters were estimated using a non-compartmental analysis and included the maximum plasma concentration of teduglutide (Cmax), time to Cmax (tmax), terminal half-life elimination (t½), area under the plasma concentration–time curve (AUC) from time 0 to infinity (AUC0-inf), and AUC from time 0 to the last measurable concentration (AUC0-t).

[4] = 12 months, patients from SHP633-306, n = 4, mean ± SD
[5] = 24 weeks, SHP633-306, n = 6, mean ± SD
[6] = 24 weeks, TED-C14-004, n = 9, mean ± SD
[7] = 30 months, TED-C14-004, n = 7, mean ± SD
[8] = 39 months, patients from TED-C14-004 in extension study, n = 5, mean ± SD
[9] = interim data cut-off, patients from TED-C14-004 in extension study, n = 3, mean ± SD
[10] = last visit before interim data cut-off of SHP633-307, patients from SHP633-306, n = 2, mean ± SD
[11] = post hoc, TED-C14-004, patients with Crohn’s disease, 24 weeks, n = 7, mean ± SD
[12] = post hoc, TED-C14-004, patients with Crohn’s disease, 30 months, n = 6, mean ± SD
[13] = post hoc, TED-C14-004, patients with a stoma, 24 weeks, n = 6, mean ± SD
[14] = post hoc, TED-C14-004, patients with a stoma, 30 months, n = 5, mean ± SD
[15] = post hoc, TED-C14-004, patients without a stoma, 24 weeks, n = 3, mean ± SD
[16] = post hoc, TED-C14-004, patients without a stoma, 30 months, n = 2, mean ± SD
[17] = interim cut-off of the extension study, patients from SHP633-306, mean ± SD
[18] = interim data cut-off of SHP633-307, patients from TED-C14-004, up to 57 months, n = 7, mean ± SD
[19] = sc, SHP633-306, plasma, 0.05 mg/kg SC once daily, n = 7, mean ± SD
[20] = sc, TED-C14-004, plasma, 0.05 mg/kg SC once daily, n = 8, mean ± SD
[21] = subcutaneous, SHP633-307, patients from TED-C14-004, first extension study visit, mean ± SD

## CC[C@H](C)[C@H](NC(=O)[C@H](Cc1ccccc1)NC(=O)[C@H](CC(=O)O)NC(=O)[C@H](CCCNC(=N)N)NC(=O)[C@H](C)NC(=O)[C@H](C)NC(=O)[C@H](CC(C)C)NC(=O)[C@H](CC(N)=O)NC(=O)[C@H](CC(=O)O)NC(=O)[C@H](CC(C)C)NC(=O)[C@@H](NC(=O)[C@@H](NC(=O)[C@H](CC(N)=O)NC(=O)[C@H](CCSC)NC(=O)[C@H](CCC(=O)O)NC(=O)[C@H](CC(=O)O)NC(=O)[C@H](CO)NC(=O)[C@H](Cc1ccccc1)NC(=O)[C@H](CO)NC(=O)CNC(=O)[C@H](CC(=O)O)NC(=O)CNC(=O)[C@@H](N)Cc1c[nH]cn1)[C@@H](C)O)[C@@H](C)CC)C(=O)N[C@@H](CC(N)=O)C(=O)N[C@@H](Cc1c[nH]c2ccccc12)C(=O)N[C@@H](CC(C)C)C(=O)N[C@H](C(=O)N[C@@H](CCC(N)=O)C(=O)N[C@H](C(=O)N[C@@H](CCCCN)C(=O)N[C@H](C(=O)N[C@H](C(=O)N[C@@H](CC(=O)O)C(=O)O)[C@@H](C)O)[C@@H](C)CC)[C@@H](C)O)[C@@H](C)CC [teduglutide]
[1]; [4]
  PS volume decrease from baseline: 7.3 ± 6.5 L/week
  PS volume percent change from baseline: −51.6% ± 28.5%
[1]; [5]
  PS volume decrease from baseline: 3.3 ± 3.6 L/week
  PS volume percent change from baseline: −25.6% ± 25.5%
  Reduction in PS infusion frequency from baseline: 0.5 ± 1.23 days/week
[1]; [6]
  PS volume decrease from baseline: 4.9 ± 4.8 L/week
  PS volume percent change from baseline: −30.1% ± 25.9%
  Reduction in PS infusion frequency from baseline: 1.0 ± 1.8 days/week
[1]; [7]
  PS volume decrease from baseline: 8.3 ± 5.9 L/week
  PS volume percent change from baseline: −53.5% ± 33.9%
  Reduction in PS infusion frequency from baseline: 2.1 ± 3.3 days/week
[1]; [8]
  PS volume decrease from baseline: 7.9 ± 4.5 L/week
  PS volume percent change from baseline: −63.6% ± 33.9%
[1]; SHP633-306, 4 of 7 patients
  Patients with reduction in weekly PS volume of ≥ 20% from baseline at both weeks 20 and 24: 57.1%
[1]; TED-C14-004, 5 of 11 patients
  Patients with reduction in weekly PS volume of ≥ 20% from baseline at both weeks 20 and 24: 45.5%
[1]; TED-C14-004 and SHP633-306 together, 9 of 18 patients
  Patients with reduction in weekly PS volume of ≥ 20% from baseline at both weeks 20 and 24: 50%
[1]; after 30 months, TED-C14-004, 6 of 7 patients
  Patients with ≥ 20% reduction in weekly PS volume from baseline: 85.7%
[1]; at 24 weeks, TED-C14-004 and SHP633-306
  Patients whose PS volume decreased by ≥ 20%: 9/18
[1]; at data cut-off in SHP633-307, all patients, mean ± SD
  PS volume percent change from baseline: −57.08 ± 28.49%
[1]; by 30 months, TED-C14-004, 2 of 8 patients
  Patients who achieved enteral autonomy: 25%
[1]; by data cut-off in SHP633-307
  Patients whose PS volume decreased by ≥ 20%: all 11 patients
[1]; by the end of TED-C14-004, maintained to last visit before data cut-off in the extension study
  Patients with ≥ 20% reduction in weekly PS volume: all patients
[1]; extension study SHP633-307, patients from SHP633-306
  Patients who maintained ≥ 20% reduction in PS volume from baseline at each scheduled visit to the last visit before data cut-off: All patients
[1]; first 24 weeks, SHP633-306 and TED-C14-004
  Patients who achieved enteral autonomy: No patients
[1]; interim data cut-off of extension study, patients from SHP633-306, mean ± SD
  Reduction in PS infusion frequency from baseline: 1.9 ± 2.3 days/week
[1]; [9]
  PS volume decrease from baseline: 11.5 ± 3.7 L/week
  PS volume percent change from baseline: −63.57% ± 32.0%
[1]; [10]
  PS volume decrease from baseline: 11.7 ± 8.6 L/week
  PS volume percent change from baseline: −76.4% ± 25.9%
[1]; [11]
  PS volume decrease from baseline: 5.3 ± 5.4 L/week
  PS volume percent change from baseline: −31.9% ± 28.9%
[1]; [12]
  PS volume decrease from baseline: 9.3 ± 5.8 L/week
  PS volume percent change from baseline: −59.4% ± 32.9%
[1]; [13]
  PS volume decrease from baseline: 6.1 ± 5.5 L/week
  PS volume percent change from baseline: −35.3% ± 30.1%
[1]; [14]
  PS volume decrease from baseline: 10.7 ± 5.4 L/week
  PS volume percent change from baseline: −65.2% ± 33.2%
[1]; [15]
  PS volume decrease from baseline: 2.7 ± 1.8 L/week
  PS volume percent change from baseline: −19.6% ± 13.1%
[1]; [16]
  PS volume decrease from baseline: 2.5 ± 0.2 L/week
  PS volume percent change from baseline: −24.3% ± 8.7%
[1]; the 2 patients of TED-C14-004 with enteral autonomy, throughout SHP633-307 until interim data cut-off
  Maintenance of enteral autonomy: remained off PS
[1]; up to the end of the extension study, patients from TED-C14-004, mean ± SD
  Reduction in PS infusion frequency from baseline: 2.2 ± 3.3 days/week
[2]; [5]
  Plasma citrulline increase from baseline: 14.3 ± 10.9 µM
  Plasma citrulline percent increase from baseline: 106.3% ± 114.9%
[2]; [6]
  Plasma citrulline increase from baseline: 15.0 ± 17.4 µM
  Plasma citrulline percent increase from baseline: 86.9% ± 112.3%
[2]; [7]
  Plasma citrulline increase from baseline: 28.3 ± 24.1 µM
  Plasma citrulline percent increase from baseline: 135.0% ± 84.2%
[2]; [17]
  Plasma citrulline increase from baseline: 13.0 ± 5.6 µM
  Plasma citrulline percent increase from baseline: 79.1% ± 33.5%
[2]; [18]
  Plasma citrulline increase from baseline: 19.2 ± 18.9 µM
  Plasma citrulline percent increase from baseline: 103.6% ± 88.7%
[3]; SHP633-307, patients from SHP633-306, sparse PK sampling, suggests no accumulation
  Pre-dose concentrations after multiple dosing: below the lower limit quantification
[3]; sc, SHP633-306, plasma, 0.05 mg/kg SC once daily, n = 6, mean ± SD
  half-life: 1.1 ± 0.2 h
[3]; [19]
  AUC(0-inf): 252 ± 85.4 ng·h/mL
  AUC(0-t): 240 ± 80.7 ng·h/mL
  Cmax: 49.5 ± 16.4 ng/mL
  Tmax: 3.6 ± 1.6 h
[3]; [20]
  AUC(0-inf): 204 ± 51.1 ng·h/mL
  AUC(0-t): 201 ± 51.6 ng·h/mL
  Cmax: 49.7 ± 19.7 ng/mL
  Tmax: 2.6 ± 1 h
  half-life: 1.2 ± 0.7 h
[3]; [21]
  AUC(0-inf): 209 ± 72.7 ng·h/mL
  AUC(0-t): 200 ± 71.6 ng·h/mL
  Cmax: 54.1 ± 18.7 ng/mL
  Tmax: 2.1 ± 0.4 h
